Article PMC5430874 (Scientific Reports, 2017)
Positions count from the first letter of the chain named.

Tests used:
Type in all cases: cell-based
GPR139 F109L^3×33 = target: T1, GPR139 F109L^3×33 (Homo sapiens, UniProt Q6DWJ6, F109L); assay: Fluo-4 Ca2+-assay, GPR139 mutant F109L; conditions: for EC50: F109L mutant
T1 construct: mGluR5 signal peptide (N); expressed in transfected cells; host or cells: HEK293
T1 sequence (Q6DWJ6 2-353 F109L limits assumed): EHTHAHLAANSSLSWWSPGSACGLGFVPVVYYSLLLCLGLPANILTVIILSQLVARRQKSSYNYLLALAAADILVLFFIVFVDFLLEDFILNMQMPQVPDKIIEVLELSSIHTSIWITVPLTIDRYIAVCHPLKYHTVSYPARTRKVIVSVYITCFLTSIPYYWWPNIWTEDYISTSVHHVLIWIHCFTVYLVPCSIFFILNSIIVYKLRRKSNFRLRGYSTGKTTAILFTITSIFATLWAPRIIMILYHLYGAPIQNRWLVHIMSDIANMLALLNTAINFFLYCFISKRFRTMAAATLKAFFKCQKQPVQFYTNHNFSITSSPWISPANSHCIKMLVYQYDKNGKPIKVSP
Text: (§1) To study the influence of specific amino acids in the predicted binding pocket on receptor function, the desired mutations were introduced into an N-terminally c-myc-tagged wild type human GPR139 (NM_001002911.3) in the pEGFP-N1 vector (BD Biosciences)[32], [33]. As previously described, these plasmids carry the signal peptide of mGluR5 to promote cell surface expression followed by a c-myc epitope to enable detection of total and surface expression by ELISA, followed by an engineered MluI and NotI site for easy insertion of the receptor of interest. Furthermore, the start-codon in the GPR139 sequence was deleted to ensure c-myc-tagging. Mutagenesis was designed in Serial Cloner 2.6 (© Franck Perez [SerialBasics]) and carried out by GenScript (USA). All mutated residues are illustrated in Supplementary Fig. 1b. An untagged GPR139(WT) in pEGFP-N1 was also generated to ensure that the c-myc-tag had no influence on GPR139(WT) function.
(§2) All GPR139 mutants were transfected into HEK293 cells. The HEK293 cells were grown in Dulbecco’s modified Eagle’s medium (DMEM) (Gibco, 41965) supplemented with 10% dialyzed fetal bovine serum (Gibco, 26400, United States origin), 100 units/mL penicillin and 100 μg/mL streptomycin (Gibco, 15140). HEK293 cells were reverse transfected using Lipofectamine2000 (Invitrogen). More specifically two mixtures were made: 1) 10 ng DNA/well + 25 μL Opti-MEM/well and 2) […] Lipofectamine2000/well + 25 μL Opti-MEM/well. The two mixtures were mixed and 50 μL/well was added directly in black 96-well plates with flat clear bottoms for the Fluo-4 Ca^2+-assay (Corning, Falcon, 353219) or in white Opaque 96-well Microplate (PerkinElmer Life, 6005680) for ELISA. 100 μL containing 20,000 cells were added to each well and incubated 48 hours before assays. All plates were coated with poly-D-lysine.
(§3) Compound 1a (1a) was kindly provided by H. Lundbeck A/S, Denmark. […] Both compounds were dissolved to 20 mM in DMSO (Sigma, D2650) and subsequently diluted in a HEPES buffer (HBSS (Gibco, 14025) supplemented with 20 mM HEPES + 1 mM MgCl2 + 1 mM CaCl2, pH = 7.4) to a final concentration of 0.5% DMSO in the Fluo-4 Ca^2+-assay. The DMSO level was kept constant for all concentrations of both compounds. DMSO was confirmed not to have any activity by itself at this concentration. L-Trp (T0254) and L -Phe (P2126) were obtained from Sigma-Aldrich and dissolved in buffer.
(§4) The Ca^2+ measurements were preformed using the Fluo-4 NW Calcium Assay Kit (Invitrogen, Molecular Probes, F36206) as previously described. Briefly, the Fluo-4 dye loading solution was prepared according to the manufacturer’s instructions by dissolving it in HEPES-buffer supplemented with 2.5 mM probenecid. 50 μL dye loading solution was added to each well. Cells were incubated with the Fluo-4 dye for 60 min at 37 °C, then washed with 100 μL HEPES-buffer. 100 μL HEPES-buffer supplemented with 2.5 mM probenecid was then added to each well and incubated in 10 minutes at 37 °C before measurement. […] Intracellular calcium changes were recorded as indicated on either a NOVOstar (BMG Labtech) at 37 °C with an excitation filter of 485 nm and an emission filters 520 nm or a FlexStation 3 Benchtop Multi-Mode Microplate Reader (Molecular Devices) at 37 °C with an excitation wavelength of 485 nm and emission of 525 nm.
(§5) All pharmacological data have been analyzed by using Prism 6.0 (GraphPad Software Inc., San Diego). Fitting of concentration response curves was performed by non-linear regression log(agonist) vs. response (four parameters). Pooled data are shown with standard error of the mean (S.E.M.) and data showing one representative are shown with standard deviation (S.D.). Changes in potency (pEC50) and span of myc-GPR139(WT) in comparison to untagged GPR139(WT) was statistically analyzed with a paired t-test and significance was accepted at p < 0.05. The ELISA data were normalized to surface expression of myc-GPR139(WT) (100%). […]

GPR139 H187A^5×43 = target: T2, GPR139 H187A^5×43 (Homo sapiens, UniProt Q6DWJ6, H187A); assay: Fluo-4 Ca2+-assay, GPR139 mutant H187A; conditions: for EC50: H187A mutant (surface expression 36% of WT)
T2 construct: mGluR5 signal peptide (N); expressed in transfected cells; host or cells: HEK293
T2 sequence (Q6DWJ6 2-353 H187A limits assumed): T1 sequence (Q6DWJ6 2-353 F109L limits assumed) with L108F, H186A
Text: as §1, §2
Compound 1a (1a) was kindly provided by H. Lundbeck A/S, Denmark. […]
The Ca^2+ measurements were preformed using the Fluo-4 NW Calcium Assay Kit (Invitrogen, Molecular Probes, F36206) as previously described. […] Intracellular calcium changes were recorded as indicated on either a NOVOstar (BMG Labtech) at 37 °C with an excitation filter of 485 nm and an emission filters 520 nm or a FlexStation 3 Benchtop Multi-Mode Microplate Reader (Molecular Devices) at 37 °C with an excitation wavelength of 485 nm and emission of 525 nm.
All pharmacological data have been analyzed by using Prism 6.0 (GraphPad Software Inc., San Diego). […] Changes in potency (pEC50) and span of myc-GPR139(WT) in comparison to untagged GPR139(WT) was statistically analyzed with a paired t-test and significance was accepted at p < 0.05. […]

GPR139 N271A^7×38 = target: T3, GPR139 N271A^7×38 (Homo sapiens, UniProt Q6DWJ6, N271A); assay: Fluo-4 Ca2+-assay, GPR139 mutant N271A; parameters: key to Emax ± SEM: NE: no effect (loss of activity); conditions: for EC50: N271A mutant (surface expression 53% of WT); for Change of in vitro potency: N271A mutant versus WT
T3 construct: mGluR5 signal peptide (N); expressed in transfected cells; host or cells: HEK293
T3 sequence (Q6DWJ6 2-353 N271A limits assumed): T1 sequence (Q6DWJ6 2-353 F109L limits assumed) with L108F, N270A
Text: as §1, §2, §3, §4, §5

C[C@@H](NC(=O)CNC(=O)c1cccc(Cl)c1)c1ccccc1 (racemic) [Compound 7c]
Emax (GPR139 F109L^3×33): 102 ± 3%
EC50 (GPR139 F109L^3×33): 3.98 µM
change of potency (GPR139 F109L^3×33; F109L mutant versus WT): ~ 100 fold
Emax (GPR139 H187A^5×43): 60 ± 9%
EC50 (GPR139 H187A^5×43): 6.61 µM
EC50 (GPR139 N271A^7×38): > 100 µM
Change of in vitro potency (GPR139 N271A^7×38): Loss of function
Emax ± SEM (GPR139 N271A^7×38; N271A, at 100 μM, normalized to buffer (0%) and 100 μM 7c (100%) on WT): NE**

COc1cc(OC)cc(C(=O)NNC(=O)Nc2cccc3ccccc23)c1 [Compound 1a]
EC50 (GPR139 F109L^3×33): > 7.94 µM
Emax at 8 µM (GPR139 F109L^3×33; F109L, at 8 μM, normalized to buffer (0%) and 8 μM 1a (100%) on WT): 42 ± 16%
EC50 (GPR139 H187A^5×43): > 7.94 µM
Emax at 8 µM (GPR139 H187A^5×43; H187A, at 8 μM, normalized to buffer (0%) and 8 μM 1a (100%) on WT): 35 ± 5%
EC50 (GPR139 N271A^7×38): > 7.94 µM
Change of in vitro potency (GPR139 N271A^7×38): Loss of function
Emax ± SEM (GPR139 N271A^7×38; N271A, at 8 μM, normalized to buffer (0%) and 8 μM 1a (100%) on WT): NE*

N[C@@H](Cc1ccccc1)C(=O)O [L-Phe, phenylalanine]
EC50 (GPR139 F109L^3×33): > 31600 µM
Emax at 30000 µM (GPR139 F109L^3×33; F109L, at 30 mM, normalized to buffer (0%) and 30 mM Phe (100%) on WT): 72 ± 9%
EC50 (GPR139 N271A^7×38): > 31600 µM
Emax at 30000 µM (GPR139 N271A^7×38; N271A, at 30 mM, normalized to buffer (0%) and 30 mM Phe (100%) on WT): 38 ± 9%

N[C@@H](Cc1c[nH]c2ccccc12)C(=O)O [L-Trp, tryptophan]
EC50 (GPR139 F109L^3×33): > 10000 µM
Emax at 10000 µM (GPR139 F109L^3×33; F109L, at 10 mM, normalized to buffer (0%) and 10 mM Trp (100%) on WT): 60 ± 5%
EC50 (GPR139 N271A^7×38): > 10000 µM
Emax at 10000 µM (GPR139 N271A^7×38; N271A, at 10 mM, normalized to buffer (0%) and 10 mM Trp (100%) on WT): 31 ± 5%
